Results from patent US20080279907A1, “Antimicrobial medical devices and methods for making and using same” (Ash Access Technology, Inc., priority 2007, published 2008).

Columns and labels:
[1] = Desorption of parabens from paraben impregnated polycarbonate catheter pieces in 0.24 M sodium citrate pH 6.2 (HPLC); type: physicochemical
Experimental: One inch polycarbonate catheter pieces including a surface area of about 4.64 cm^2 were impregnated with methyl paraben and propyl paraben. A solution of 100% 1,2-propanediol was prepared with 9% methyl paraben and 2% propyl paraben. Pairs of the one inch catheter pieces were placed into three 25 ml flasks including 10 ml of the 1,2-propanediol and paraben solution. The flasks including the catheter pieces were placed on a shaker at 220 rpm and 27° C. for two, four, or nine hour time periods. At the end of each time period, the catheter pieces were removed, rinsed with distilled water, and dried.
Desorption analysis of the paraben impregnated catheter pieces was performed in 0.24 M sodium citrate with a pH of 6.2. The total amount of either methyl paraben or propyl paraben released from the catheter pieces was calculated using HPLC analysis performed with a Waters Alliance 2690 including a 996 Photodiode Array Detector. Each calculation used a solution of HPLC grade H2O, methanol (MeOH), and acetonitrile (CAN) which were pre-filtered through a Millipore 0.45 μm nylon filter before use. Trifluoracetic acid (TFA) was added to H2O and acetonitrile (ACN) to 0.1%. A Waters Symmetry column (C8 3.9×150 mm, 5 μm) was applied with a Waters guard column (Waters, Sentry Guard column, Nova-Pak C18, 60A, 4 μm 3.9×20 mm).
A gradient of 67% H2O/33% ACN was used for 6.5 min, ramped to 45 %/55% from 6.5 to 7.0 min, and kept at 45%/55% until 15.0 min, at 15.0 min the concentration reverted to 67%/33%, and the system was run until 18 min. Injection volume for each sample was 10 μl and samples and column were run at ambient temperature.
Table 2 includes the graphical data represented in FIG. 8 and associated with the desorption of propyl paraben from the paraben impregnated catheter pieces prepared as discussed above. Again, the samples were impregnated only with parabens and desorbed in 10 ml 0.24 M Na-citrate, pH 6.2 over time.

[2] = Perfusion of parabens and methylene blue through polycarbonate membrane in perfusion chamber (HPLC of lower chamber); type: physicochemical
Experimental: An experiment was performed to determine a method for perfusing methylene blue, methyl paraben, and propyl paraben through a polycarbonate membrane with causing only minimal changes to the strength and elasticity of the membrane. In FIG. 12, there is illustrated a perfusion chamber system 50 used during the experiment. System 50 includes an upper chamber 51 and a lower chamber 52 separated by a polycarbonate membrane 53 having a thickness of 0.60 mm. The upper and lower chambers 51, 52 are generally structured to hold 10.5 cm^3 or 10.5 ml of fluid. The upper chamber 51 was connected to a peristaltic pump (not shown) and the lower chamber 52 was filled with distilled water. First and second solutions, respectively including the parabens and the methylene blue, were prepared in accordance with the method set forth in EXAMPLE 6 above. As best seen in Tables 6 and 7 below, the solutions were connected to the pump and passed through the first chamber 51 at a constant rate at 37° C. over various lengths of time.
Table 6 includes data obtained from HPLC analysis comparing the methyl paraben, propyl paraben, and methylene blue concentrations in the lower chamber 52. The parameters for the methyl and propyl paraben and methylene blue treatments are indicated in the left hand columns.

[3] = lower chamber, 20% PG/80% DI H2O (0.9% MP, 0.2% PP) ~9 hrs at 37 C., then MB ~10 days

CCCOC(=O)c1ccc(O)cc1 [PP, propyl paraben]
desorption by the end of the study ([1]; nearly 3 months, FIGS. 8 and 9): negligible desorption
period of significant release ([1]; paraben impregnated catheter pieces, 0.24 M Na-citrate pH 6.2): 20 days
Total PP released (mg)/1″ catheter ([1]; treatment 2 hrs (100% PG, 9% MP, 2% PP), time 1 hour): 0.048 mg/1″ catheter
Total PP released (mg)/1″ catheter ([1]; treatment 2 hrs (100% PG, 9% MP, 2% PP), time 3 hours): 0.081 mg/1″ catheter
Total PP released (mg)/1″ catheter ([1]; treatment 2 hrs (100% PG, 9% MP, 2% PP), time 7 hours): 0.121 mg/1″ catheter
Total PP released (mg)/1″ catheter ([1]; treatment 2 hrs (100% PG, 9% MP, 2% PP), time 24 hours): 0.121 mg/1″ catheter
Total PP released (mg)/1″ catheter ([1]; treatment 2 hrs (100% PG, 9% MP, 2% PP), time 4 days): 0.153 mg/1″ catheter
Total PP released (mg)/1″ catheter ([1]; treatment 2 hrs (100% PG, 9% MP, 2% PP), time 5 days): 0.182 mg/1″ catheter
Total PP released (mg)/1″ catheter ([1]; treatment 2 hrs (100% PG, 9% MP, 2% PP), time 6 days): 0.209 mg/1″ catheter
Total PP released (mg)/1″ catheter ([1]; treatment 2 hrs (100% PG, 9% MP, 2% PP), time 8 days): 0.239 mg/1″ catheter
Total PP released (mg)/1″ catheter ([1]; treatment 2 hrs (100% PG, 9% MP, 2% PP), time 11 days): 0.264 mg/1″ catheter
Total PP released (mg)/1″ catheter ([1]; treatment 2 hrs (100% PG, 9% MP, 2% PP), time 13 days): 0.288 mg/1″ catheter
Total PP released (mg)/1″ catheter ([1]; treatment 2 hrs (100% PG, 9% MP, 2% PP), time 15 days): 0.311 mg/1″ catheter
Total PP released (mg)/1″ catheter ([1]; treatment 2 hrs (100% PG, 9% MP, 2% PP), time 18 days): 0.332 mg/1″ catheter
Total PP released (mg)/1″ catheter ([1]; treatment 2 hrs (100% PG, 9% MP, 2% PP), time 22 days): 0.352 mg/1″ catheter
Total PP released (mg)/1″ catheter ([1]; treatment 2 hrs (100% PG, 9% MP, 2% PP), time 29 days): 0.37 mg/1″ catheter
Total PP released (mg)/1″ catheter ([1]; treatment 2 hrs (100% PG, 9% MP, 2% PP), time 36 days): 0.387 mg/1″ catheter
Total PP released (mg)/1″ catheter ([1]; treatment 2 hrs (100% PG, 9% MP, 2% PP), time 50 days): 0.404 mg/1″ catheter
Total PP released (mg)/1″ catheter ([1]; treatment 2 hrs (100% PG, 9% MP, 2% PP), time 67 days): 0.417 mg/1″ catheter
Total PP released (mg)/1″ catheter ([1]; treatment 2 hrs (100% PG, 9% MP, 2% PP), time 81 days): 0.429 mg/1″ catheter
Total PP released (mg)/1″ catheter ([1]; treatment 4 hrs (100% PG, 9% MP, 2% PP), time 1 hour): 0.007 mg/1″ catheter
Total PP released (mg)/1″ catheter ([1]; treatment 4 hrs (100% PG, 9% MP, 2% PP), time 3 hours): 0.069 mg/1″ catheter
Total PP released (mg)/1″ catheter ([1]; treatment 4 hrs (100% PG, 9% MP, 2% PP), time 7 hours): 0.138 mg/1″ catheter
Total PP released (mg)/1″ catheter ([1]; treatment 4 hrs (100% PG, 9% MP, 2% PP), time 24 hours): 0.208 mg/1″ catheter
Total PP released (mg)/1″ catheter ([1]; treatment 4 hrs (100% PG, 9% MP, 2% PP), time 4 days): 0.254 mg/1″ catheter
Total PP released (mg)/1″ catheter ([1]; treatment 4 hrs (100% PG, 9% MP, 2% PP), time 5 days): 0.293 mg/1″ catheter
Total PP released (mg)/1″ catheter ([1]; treatment 4 hrs (100% PG, 9% MP, 2% PP), time 6 days): 0.326 mg/1″ catheter
Total PP released (mg)/1″ catheter ([1]; treatment 4 hrs (100% PG, 9% MP, 2% PP), time 8 days): 0.362 mg/1″ catheter
Total PP released (mg)/1″ catheter ([1]; treatment 4 hrs (100% PG, 9% MP, 2% PP), time 11 days): 0.393 mg/1″ catheter
Total PP released (mg)/1″ catheter ([1]; treatment 4 hrs (100% PG, 9% MP, 2% PP), time 13 days): 0.424 mg/1″ catheter
Total PP released (mg)/1″ catheter ([1]; treatment 4 hrs (100% PG, 9% MP, 2% PP), time 15 days): 0.45 mg/1″ catheter
Total PP released (mg)/1″ catheter ([1]; treatment 4 hrs (100% PG, 9% MP, 2% PP), time 18 days): 0.476 mg/1″ catheter
Total PP released (mg)/1″ catheter ([1]; treatment 4 hrs (100% PG, 9% MP, 2% PP), time 22 days): 0.497 mg/1″ catheter
Total PP released (mg)/1″ catheter ([1]; treatment 4 hrs (100% PG, 9% MP, 2% PP), time 29 days): 0.518 mg/1″ catheter
Total PP released (mg)/1″ catheter ([1]; treatment 4 hrs (100% PG, 9% MP, 2% PP), time 36 days): 0.539 mg/1″ catheter
Total PP released (mg)/1″ catheter ([1]; treatment 4 hrs (100% PG, 9% MP, 2% PP), time 50 days): 0.569 mg/1″ catheter
Total PP released (mg)/1″ catheter ([1]; treatment 4 hrs (100% PG, 9% MP, 2% PP), time 67 days): 0.585 mg/1″ catheter
Total PP released (mg)/1″ catheter ([1]; treatment 4 hrs (100% PG, 9% MP, 2% PP), time 81 days): 0.6 mg/1″ catheter
Total PP released (mg)/1″ catheter ([1]; treatment 9 hrs (100% PG, 9% MP, 2% PP), time 1 hour): 0.082 mg/1″ catheter
Total PP released (mg)/1″ catheter ([1]; treatment 9 hrs (100% PG, 9% MP, 2% PP), time 3 hours): 0.124 mg/1″ catheter
Total PP released (mg)/1″ catheter ([1]; treatment 9 hrs (100% PG, 9% MP, 2% PP), time 7 hours): 0.175 mg/1″ catheter
Total PP released (mg)/1″ catheter ([1]; treatment 9 hrs (100% PG, 9% MP, 2% PP), time 24 hours): 0.221 mg/1″ catheter
Total PP released (mg)/1″ catheter ([1]; treatment 9 hrs (100% PG, 9% MP, 2% PP), time 4 days): 0.279 mg/1″ catheter
Total PP released (mg)/1″ catheter ([1]; treatment 9 hrs (100% PG, 9% MP, 2% PP), time 5 days): 0.331 mg/1″ catheter
Total PP released (mg)/1″ catheter ([1]; treatment 9 hrs (100% PG, 9% MP, 2% PP), time 6 days): 0.375 mg/1″ catheter
Total PP released (mg)/1″ catheter ([1]; treatment 9 hrs (100% PG, 9% MP, 2% PP), time 8 days): 0.422 mg/1″ catheter
Total PP released (mg)/1″ catheter ([1]; treatment 9 hrs (100% PG, 9% MP, 2% PP), time 11 days): 0.463 mg/1″ catheter
Total PP released (mg)/1″ catheter ([1]; treatment 9 hrs (100% PG, 9% MP, 2% PP), time 13 days): 0.5 mg/1″ catheter
Total PP released (mg)/1″ catheter ([1]; treatment 9 hrs (100% PG, 9% MP, 2% PP), time 15 days): 0.533 mg/1″ catheter
Total PP released (mg)/1″ catheter ([1]; treatment 9 hrs (100% PG, 9% MP, 2% PP), time 18 days): 0.565 mg/1″ catheter
Total PP released (mg)/1″ catheter ([1]; treatment 9 hrs (100% PG, 9% MP, 2% PP), time 22 days): 0.594 mg/1″ catheter
Total PP released (mg)/1″ catheter ([1]; treatment 9 hrs (100% PG, 9% MP, 2% PP), time 29 days): 0.622 mg/1″ catheter
Total PP released (mg)/1″ catheter ([1]; treatment 9 hrs (100% PG, 9% MP, 2% PP), time 36 days): 0.65 mg/1″ catheter
Total PP released (mg)/1″ catheter ([1]; treatment 9 hrs (100% PG, 9% MP, 2% PP), time 50 days): 0.687 mg/1″ catheter
Total PP released (mg)/1″ catheter ([1]; treatment 9 hrs (100% PG, 9% MP, 2% PP), time 67 days): 0.708 mg/1″ catheter
Total PP released (mg)/1″ catheter ([1]; treatment 9 hrs (100% PG, 9% MP, 2% PP), time 81 days): 0.727 mg/1″ catheter
time until perfused through the membrane and detected in the lower chamber ([2]; 0.60 mm polycarbonate membrane, 37° C.): within two hours
PP conc [2, 3]: 0.01 mg/mL
Total mg PP in 10.5 ml lower chamber [2, 3]: 0.105 mg
